The text below walks through data of ChEMBL document CHEMBL5214978, “Identification of 1,4-Benzodiazepine-2,5-dione Derivatives as Potential Protein Synthesis Inhibitors with Highly Potent Anticancer Activity” (J Med Chem, 2022).

Molecules are shown by their SMILES.

One assay has as its system A498. Description: Anticancer activity against human A498 cells assessed as cell growth inhibition. The assay is classed as functional, cell-based.
The test system of assay [1] is Panel NCI-60 (60 carcinoma cell lines). Description: Anticancer activity against human Panel NCI-60 (60 carcinoma cell lines) cells assessed as cell growth inhibition. The assay is classed as functional.
Another assay relates to A549. Description: Anticancer activity against human A549 cells assessed as cell growth inhibition measured after 48 hrs by SRB assay. The assay is classed as functional. For orientation: In SRB staining, fixed cells bind dye roughly in proportion to their protein.
A further assay concerns SF-295. The assay is described as follows: Anticancer activity against human SF-295 cells assessed as cell growth inhibition measured after 48 hrs by SRB assay. The assay is classed as functional.
The subject of the next assay is 786-0. Description: Anticancer activity against human 786-0 cells assessed as cell growth inhibition measured after 48 hrs by SRB assay. The assay is classed as functional.
In assay [2] the test system is Panel NCI-60 (60 carcinoma cell lines). The assay is described as follows: Anticancer activity against human Panel NCI-60 (60 carcinoma cell lines) line assessed as cell growth inhibition measured after 48 hrs by SRB assay. The assay is classed as functional.
The next assay concerns LOX IMVI. Description: Anticancer activity against human LOX IMVI cells assessed as cell growth inhibition measured after 48 hrs by SRB assay. The assay is classed as functional.
The subject of another assay is HCT-116. Description: Anticancer activity against human HCT-116 cells assessed as cell growth inhibition measured after 48 hrs by SRB assay. It counts as functional.
The target in assay [3] is T1, Nuclear receptor subfamily 6 group A member 1 (Homo sapiens, UniProt Q15406).
T1 sequence (Q15406 whole entry): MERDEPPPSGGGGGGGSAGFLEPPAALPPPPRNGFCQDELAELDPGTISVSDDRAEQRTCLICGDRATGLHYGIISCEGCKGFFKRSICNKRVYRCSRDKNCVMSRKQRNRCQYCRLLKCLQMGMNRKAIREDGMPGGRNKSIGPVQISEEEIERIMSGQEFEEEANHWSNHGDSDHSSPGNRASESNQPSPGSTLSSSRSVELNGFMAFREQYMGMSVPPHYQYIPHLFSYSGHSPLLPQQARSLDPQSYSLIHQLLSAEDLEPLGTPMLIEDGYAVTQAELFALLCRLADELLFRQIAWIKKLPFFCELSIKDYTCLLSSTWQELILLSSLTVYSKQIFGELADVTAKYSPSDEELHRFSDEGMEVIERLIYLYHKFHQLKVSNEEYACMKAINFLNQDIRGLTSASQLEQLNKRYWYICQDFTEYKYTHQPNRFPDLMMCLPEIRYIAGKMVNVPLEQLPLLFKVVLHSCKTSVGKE
The assay is described as follows: Antagonist activity at GCNF (unknown origin) by luciferase reporter gene assay. (In general: Reporter assays use an easily measured gene product as a stand-in for the process of interest.)

The test system of another assay is NCI-H661. Description: Anticancer activity against human NCI-H661 cells assessed as cell growth inhibition. It counts as functional, cell-based.
The next assay has as its system MCF7. The assay is described as follows: Anticancer activity against human MCF7 cells assessed as cell growth inhibition.
The next assay relates to MDA-MB-231. Description: Anticancer activity against human MDA-MB-231 cells assessed as cell growth inhibition.

What is called GI50 is the concentration that inhibits growth by half. Turning to `O=C1Nc2ccccc2C(=O)N2C=C(c3ccc(Br)cc3)C[C@@H]12`, the 50% growth inhibitory concentration (GI50) in the assay on A498 amounted to 0.51 µM; in assay [1], 7.41 µM.

In the case of `COC(=O)C[C@@H]1NC(=O)c2cc(Oc3cc(C)cc(C)c3)c(NC(=O)c3ccc(OC)c(OC)c3OC)cc2NC1=O`, the GI50 (in the assay on A549; in the assay with SF-295; in the assay on 786-0; in assay [2]; with LOX IMVI; with HCT-116) was greater than 50 µM in each case.

As usually defined, the EC50 is the concentration giving half of the maximal effect. Read a high EC50 as lower potency in that assay. For orientation: IC50 means the midpoint of a concentration-inhibition curve. In [3], `O=C1Nc2ccc(Br)cc2C(=O)N(Cc2ccccc2Sc2ccc(Cl)cc2)[C@@H]1Cc1ccccc1` came in with an EC50 of less than 7 µM. Also, in the assay with A498, the IC50 is 5 µM.

With `CCc1noc(C[C@@H]2NC(=O)c3cc(Oc4cc(C)cc(C)c4)c(NC(=O)c4cc(OC)c(OC)c(OC)c4)cc3NC2=O)n1`, the GI50 with A549 came out at 0.14 µM; in the assay on SF-295 it was 0.11 µM; with 786-0 it was 0.72 µM; in [2] it was 0.27 µM; with LOX IMVI it was 0.13 µM; in the assay with HCT-116 it was 0.26 µM.

Consider `COc1cc(C(=O)Nc2cc3c(cc2Oc2cc(C)cc(C)c2)C(=O)N[C@@H](CC(N)=O)C(=O)N3)cc(OC)c1OC`, for which the GI50 with A549 amounted to 3.97 µM; in the assay with SF-295, 2.01 µM; in the assay with 786-0, 3.45 µM; in [2], 1.12 µM; with LOX IMVI it was 0.35 µM; with HCT-116 it was 0.79 µM.

For `COC(=O)C[C@@H]1NC(=O)c2cc(Oc3ccc(OC)cc3)c(NC(=O)c3cc(OC)c(OC)c(OC)c3)cc2NC1=O`, the 50% growth inhibitory concentration (GI50) (with A549; with SF-295; with 786-0; in assay [2]; with LOX IMVI; in the assay on HCT-116) was greater than 50 µM each time.

In the case of `COC(=O)C[C@@H]1NC(=O)c2cc(Oc3cc(C)cc(C)c3)c(NC(=O)c3ccco3)cc2NC1=O`, the GI50 (in the assay with A549; in the assay on SF-295; in the assay with 786-0; in assay [2]; with LOX IMVI; in the assay with HCT-116) was greater than 50 µM each time.

For `CCN(CC)C(=O)C[C@@H]1NC(=O)c2cc(Oc3cc(C)cc(C)c3)c(NC(=O)c3c(F)c(OC)c(OC)c(OC)c3Cl)cc2NC1=O`, the GI50 was determined as 0.015 µM in the assay with A549; 0.04 µM with SF-295; 0.061 µM with 786-0; 0.023 µM in assay [2]; 0.007 µM with LOX IMVI; 0.017 µM in the assay with HCT-116.

In the case of `COC(=O)C[C@@H]1NC(=O)c2cc(Oc3cc(C)cc(C)c3)c(NCc3cc(OC)c(OC)c(OC)c3)cc2NC1=O`, the concentration for 50% growth inhibition (GI50) (with A549; with SF-295; in the assay with 786-0; in assay [2]; in the assay with LOX IMVI; in the assay on HCT-116) was greater than 50 µM each time.

Take `COC(=O)C[C@@H]1NC(=O)c2cc(OCCN3CCOCC3)c(NC(=O)c3cc(OC)c(OC)c(OC)c3)cc2NC1=O`: the GI50 (with A549; in the assay on SF-295; in the assay with 786-0; in [2]; in the assay on LOX IMVI; in the assay on HCT-116) was greater than 50 µM in each case.

As for `COC(=O)C[C@@H]1NC(=O)c2cc(OCCCc3cc(C)cc(C)c3)c(NC(=O)c3cc(OC)c(OC)c(OC)c3)cc2NC1=O`, the GI50 (with A549; in the assay with SF-295; in the assay with 786-0; in [2]; with LOX IMVI; in the assay on HCT-116) was greater than 50 µM each time.

Turning to `CCc1nc(C[C@@H]2NC(=O)c3cc(Oc4cc(C)cc(C)c4)c(NC(=O)c4cc(OC)c(OC)c(OC)c4)cc3NC2=O)no1`, the 50% growth inhibitory concentration (GI50) in the assay with A549 is 0.27 µM; in the assay with SF-295, 0.12 µM; with 786-0 it was 0.66 µM; in assay [2], 0.36 µM; in the assay with LOX IMVI, 0.24 µM; in the assay on HCT-116 it was 0.33 µM.

As for `CCN(CC)C(=O)C[C@@H]1NC(=O)c2cc(Oc3cc(C)cc(C)c3)c(N(C)C(=O)c3cc(OC)c(OC)c(OC)c3)cc2NC1=O`, the GI50 in the assay on A549 was greater than 50 µM; in the assay on SF-295, greater than 50 µM; in the assay with 786-0, greater than 50 µM; in [2], greater than 50 µM; in the assay on LOX IMVI it was greater than 50 µM; in the assay on HCT-116 it was 50 µM.

In the case of `O=C(CCCCCN1C(=O)c2ccccc2N(Cc2ccccc2)C(=O)[C@@H]1Cc1ccccc1)NO`, in the assay with NCI-H661, the IC50 stood at 6 µM.

Regarding `C[C@H](c1ccc(Cl)cc1)N1C(=O)c2cc(I)ccc2N(CCCCC(=O)O)C(=O)[C@@H]1c1ccc(Cl)cc1`, the half-maximal inhibitory concentration (IC50) was 7 µM in the assay with MCF7 and 67 µM with MDA-MB-231.

As for `COC(=O)C[C@@H]1NC(=O)c2cc(Oc3cc(C)cc(C)c3)c(NC(=O)c3ccc(F)cc3)cc2NC1=O`, the GI50 (in the assay with A549; in the assay on SF-295; with 786-0; in [2]; in the assay with LOX IMVI; with HCT-116) was greater than 50 µM each time.

On to `COC(=O)C[C@@H]1NC(=O)c2cc(-c3cc(C)cc(C)c3)c(NC(=O)c3cc(OC)c(OC)c(OC)c3)cc2NC1=O`, for which the concentration for 50% growth inhibition (GI50) (in the assay on A549; in the assay with SF-295; with 786-0; in assay [2]; in the assay with LOX IMVI; in the assay on HCT-116) was greater than 50 µM each time.

With `COC(=O)C[C@@H]1NC(=O)c2cc(OCCc3cc(C)cc(C)c3)c(NC(=O)c3cc(OC)c(OC)c(OC)c3)cc2NC1=O`, the GI50 in the assay on A549 was found to be 2.09 µM; in the assay on SF-295 it was 1.61 µM; in the assay with 786-0 it was 7.45 µM; in assay [2], 3.02 µM; with LOX IMVI, 5.15 µM; in the assay with HCT-116 it was 4.01 µM.

As for `CCN(CC)C(=O)C[C@H]1C(=O)Nc2cc(NC(=O)c3c(Cl)c(OC)c(OC)c(OC)c3Br)c(Oc3cc(C)cc(C)c3)cc2C(=O)N1C`, the GI50 in the assay with A549 is 0.074 µM; in the assay on SF-295, 0.068 µM; in the assay on 786-0 it was 0.087 µM; in [2], 0.068 µM; in the assay with LOX IMVI, 0.039 µM; in the assay on HCT-116, 0.07 µM.

Regarding `COC(=O)C[C@@H]1NC(=O)c2cc(Oc3ccccc3)c(NC(=O)c3cc(OC)c(OC)c(OC)c3)cc2NC1=O`, the GI50 (with A549; in the assay with SF-295; in the assay with 786-0; in assay [2]; in the assay on LOX IMVI; in the assay with HCT-116) was greater than 50 µM in each case.

For `COC(=O)C[C@@H]1NC(=O)c2cc(Oc3cc(C)cc(F)c3)c(NC(=O)c3cc(OC)c(OC)c(OC)c3)cc2NC1=O`, the GI50 in the assay on A549 is 0.14 µM; with SF-295, 0.15 µM; in the assay with 786-0, 0.16 µM; in assay [2], 0.18 µM; with LOX IMVI, 0.19 µM; in the assay with HCT-116 it was 0.16 µM.

For the compound `COC(=O)C[C@@H]1NC(=O)c2cc(Oc3ccc4c(c3)CCC4)c(NC(=O)c3cc(OC)c(OC)c(OC)c3)cc2NC1=O`, the GI50 was 1.4 µM in the assay with A549; 0.99 µM in the assay with SF-295; 2.13 µM in the assay on 786-0; 1.86 µM in assay [2]; 1.93 µM in the assay with LOX IMVI; 1.71 µM in the assay on HCT-116.

As to `COC(=O)C[C@@H]1NC(=O)c2cc(C#Cc3cc(C)cc(C)c3)c(NC(=O)c3cc(OC)c(OC)c(OC)c3)cc2NC1=O`, the GI50 (with A549; in the assay on SF-295; with 786-0; in [2]; in the assay with LOX IMVI; with HCT-116) was greater than 50 µM each time.

In the case of `COC(=O)C[C@@H]1NC(=O)c2cc(Oc3cc(C)cc(C)c3)c(NC(=O)c3cc(OC)cc(OC)c3)cc2NC1=O`, the concentration for 50% growth inhibition (GI50) in the assay on A549 was determined as 0.15 µM; in the assay on SF-295, 0.08 µM; in the assay on 786-0 it was 0.15 µM; in [2] it was 0.24 µM; in the assay on LOX IMVI, 0.24 µM; in the assay with HCT-116, 0.2 µM.

As to `CCN(CC)C(=O)C[C@@H]1NC(=O)c2cc(Oc3cc(C)cc(C)c3)c(NC(=O)c3cc(OC)c(OC)c(OC)c3)cc2NC1=O`, the GI50 in the assay on A549 came out at 0.02 µM; in the assay on SF-295, 0.02 µM; in the assay on 786-0 it was 0.09 µM; in [2], 0.03 µM; in the assay on LOX IMVI, 0.02 µM; with HCT-116, 0.02 µM.

`COC(=O)C[C@@H]1NC(=O)c2cc(Oc3ccc(C(F)(F)F)cc3)c(NC(=O)c3cc(OC)c(OC)c(OC)c3)cc2NC1=O`: the GI50 (in the assay on A549; in the assay on SF-295; in the assay on 786-0; in [2]; in the assay on LOX IMVI; in the assay with HCT-116) was greater than 50 µM in each case.
